Test results as given in US20240299360A1, “ADAMTS INHIBITORS, PREPARATION METHODS AND MEDICINAL USES THEREOF” (Jiangsu Hengrui Pharmaceuticals Co., Ltd., priority 2020, published 2024).

How the values were obtained:
Type in all cases: biochemical
[1] = molecular target: T1, ADAMTS-5 recombinant protein (Homo sapiens (Human), UniProt Q9UNA0); test: In vitro fluorescence (FRET-peptide) enzymatic assay of ADAMTS-5 activity; details: FRET peptide substrate 8 μM, 10 nM enzyme, 37° C. 3 hours
Experimental: (§1) A FRET (fluorescence resonance energy transfer) peptide was cleaved by recombinant ADAMTS-4 or ADAMTS-5 proteins into two separate fragments resulting in an increase of fluorescence signal which was quantified. The peptide was 5-FAM-[…](5-TAMRA)K-NH2, customized from ANASPEC. ADAMTS-4 recombinant protein (catalog #4307-AD) and ADAMTS-5 recombinant protein (catalog #2198-AD) were purchased from R&D Systems.
(§2) An assay buffer containing 50 mM HEPES pH 7.5, 100 mM NaCl, 5 mM CaCl2, 0.1% CHAPS and 5% Glycerol was prepared. A volume of 2.5 μl of compound in the assay buffer was dispensed to a 384-well plate, and 2.5 μl of ADAMTS-4 or ADAMTS-5 protein (final concentration in the reaction was 10 nM) was added. The compounds and proteins were pre-incubated at room temperature for 15 minutes. Then, 5 μl of substrate was added to each well. The final substrate concentrations for ADAMTS-4 and ADAMTS-5 were 15 μM and 8 μM, respectively. The fluorescence signal in each well was determined, after incubation at 37° C. for 3 hours, on a TECAN plate reader (Excitation, 490 nm; Emission, 520 nm).
(§3) The data was inputted into GraphPad Prism, and the IC50 values were calculated using function “log (inhibitor) vs. response—Variable slope (four parameters)”. (See Table 1)

[2] = molecular target: T1, ADAMTS-5 recombinant protein; test: In vitro ELISA of ADAMTS-5 activity (Aggrecan-IGD enzymatic assay); details: aggrecan-IGD substrate, ARGSVIL-peptide ELISA, 37° C. 45 minutes
Experimental: In this assay, the enzymatic activity of recombinant ADAMTS-5 protein (catalog #2198-AD, R&D Systems) was assayed with a protein substrate, the aggrecan IGD protein. The aggrecan IGD protein is a polypeptide connecting human aggrecan globular domains 1 and 2 (T331-G458) expressed in E. Coli with a C-terminal His-tag (catalog #30411000, BIOTEZ). The enzymatic product ARGSVIL-peptide was detected using an ELISA kit from BioTEZ (catalog #30510111).
An assay buffer containing 50 mM HEPES pH 7.5, 100 mM NaCl, 5 mM CaCl2), 0.1% CHAPS and 5% Glycerol was prepared. Recombinant ADAMTS-5 protein was diluted to 0.3 nM in the assay buffer. Ten μl of […] and 10 μl of compound solution was transferred to each well of a 96-well plate and incubated at room temperature for 15 minutes. Substrate aggrecan-IGD was diluted to 100 nM with the assay buffer and 20 μl was added to each well. The plate was incubated at 37° C. for 45 minutes. After incubation, the newly generated epitope ARGSVIL-peptides were measured using the Aggrecanase Activity ELISA Assay Kit following the manufacturer's instructions. Then, 100 μl of stop solution was added and the absorbance of each well was read at 450 nm, using […] as reference on a TECAN plate reader.
A standard curve of the ELISA assay was generated in GraphPad Prism using Sigmoidal 4PL function and the corresponding peptide concentrations were calculated based on the standard curve. The IC50 values were calculated using function “log (inhibitor) vs. response—Variable slope (four parameters)”. (See Table 2).

[3] = molecular target: ADAMTS-4 recombinant protein (Homo sapiens (Human), UniProt O75173); test: In vitro fluorescence (FRET-peptide) enzymatic assay of ADAMTS-4 activity; details: FRET peptide substrate 15 μM, 10 nM enzyme, 37° C. 3 hours
Chain of ADAMTS-4 recombinant protein (O75173 213-685): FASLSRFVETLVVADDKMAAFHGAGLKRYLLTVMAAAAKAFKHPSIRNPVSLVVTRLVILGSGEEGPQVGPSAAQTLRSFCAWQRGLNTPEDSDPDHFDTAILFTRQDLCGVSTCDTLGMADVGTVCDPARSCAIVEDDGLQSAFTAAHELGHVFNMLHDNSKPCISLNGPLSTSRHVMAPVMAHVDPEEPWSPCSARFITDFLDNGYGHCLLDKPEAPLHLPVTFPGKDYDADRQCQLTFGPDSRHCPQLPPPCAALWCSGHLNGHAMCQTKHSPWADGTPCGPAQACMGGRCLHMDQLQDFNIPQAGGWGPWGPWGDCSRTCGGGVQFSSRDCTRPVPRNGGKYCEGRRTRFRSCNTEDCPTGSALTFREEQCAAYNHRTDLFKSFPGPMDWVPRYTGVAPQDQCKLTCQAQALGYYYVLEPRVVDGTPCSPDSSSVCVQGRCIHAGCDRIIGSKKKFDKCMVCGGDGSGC
Experimental: as §1, §2, §3

T1 sequence (Q9UNA0 262-622): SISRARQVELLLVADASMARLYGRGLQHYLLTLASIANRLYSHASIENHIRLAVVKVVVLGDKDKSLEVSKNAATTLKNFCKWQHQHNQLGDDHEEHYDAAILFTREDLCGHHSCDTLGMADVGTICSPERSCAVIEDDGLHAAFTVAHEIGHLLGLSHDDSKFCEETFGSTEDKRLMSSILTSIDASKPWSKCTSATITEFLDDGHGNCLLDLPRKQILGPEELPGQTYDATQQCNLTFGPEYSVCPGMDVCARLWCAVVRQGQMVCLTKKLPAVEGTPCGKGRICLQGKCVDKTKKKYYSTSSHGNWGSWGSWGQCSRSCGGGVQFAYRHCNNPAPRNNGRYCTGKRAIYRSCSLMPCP

Row | SMILES | IC50 [1] [nM] | IC50 [2] [nM] | IC50 [3] [nM]
1 | CC(C[C@@]1(C2CC2)NC(=O)NC1=O)C(=O)N1Cc2cc(Cl)c(Cl)cc2C1 (mixture of isomers) [Example 34-2, (5S)-5-cyclopropyl-5-(3-(5,6-dichloroisoindolin-2-yl)-2-methyl-3-oxopropyl)imidazolidine-2,4-dione] | 9 | 17 | 7
2 | O=C1NC(=O)[C@](C[C@@H](CO)C(=O)N2Cc3cc(Cl)c(C(F)(F)F)cc3C2)(C2CC2)N1 (single isomer, unassigned) | 15 | – | 16
3 | C[C@H]1CN(C(=O)CC[C@@]2(C3CC3)NC(=O)NC2=O)CCc2ccc(F)cc21 (single isomer, unassigned) [Example 27] | 270 | – | 170
4 | C[C@@H]1CN(C(=O)CC[C@@]2(C3CC3)NC(=O)NC2=O)CCc2ccc(F)cc21 (single isomer, unassigned) [Example 28] | 48 | – | 47
5 | O=C1NC(=O)[C@](CCC(=O)N2Cc3ccc(Cl)cc3C2)(C2CC2)N1 [Example 2, (S)-5-(3-(5-chloroisoindolin-2-yl)-3-oxopropyl)-5-cyclopropylimidazolidine-2,4-dione] | 190 | 860 | 91
6 | O=C1NC(=O)[C@](CCC(=O)N2Cc3ccc(OC(F)(F)F)cc3C2)(C2CC2)N1 [Example 4, (S)-5-cyclopropyl-5-(3-oxo-3-(5-(trifluoromethoxy)isoindolin-2-yl)propyl)imidazolidine-2,4-dione] | 480 | 730 | 170
7 | O=C1NC(=O)[C@](CCC(=O)N2CCc3cc(C(F)(F)F)ccc3C2)(C2CC2)N1 [Example 6, (S)-5-cyclopropyl-5-(3-oxo-3-(6-(trifluoromethyl)-3,4-dihydroisoquinolin-2 (1H)-yl)propyl)imidazolidine-2,4-dione] | 240 | 650 | 56
8 | O=C1NC(=O)[C@](CCC(=O)N2Cc3ccc(OC(F)F)cc3C2)(C2CC2)N1 [Example 10, (S)-5-cyclopropyl-5-(3-(5-(difluoromethoxy)isoindolin-2-yl)-3-oxopropyl)imidazolidine-2,4-dione] | 260 | – | 41
9 | O=C1NC(=O)[C@](CCC(=O)N2Cc3ccccc3C2)(C2CC2)N1 [Example 11, (S)-5-cyclopropyl-5-(3-(isoindolin-2-yl)-3-oxopropyl)imidazolidine-2,4-dione] | 410 | 560 | 110
10 | O=C1NC(=O)[C@](CCC(=O)N2Cc3cccnc3C2)(C2CC2)N1 [Example 12, (S)-5-cyclopropyl-5-(3-(5,7-dihydro-6H-pyrrolo[3,4-b]pyridin-6-yl)-3-oxopropyl)imidazolidine-2,4-dione] | 1500 | – | 2300
11 | O=C1NC(=O)[C@](CCC(=O)N2Cc3ccncc3C2)(C2CC2)N1 [Example 13, (S)-5-cyclopropyl-5-(3-(1,3-dihydro-2H-pyrrolo[3,4-c]pyridin-2-yl)-3-oxopropyl)imidazolidine-2,4-dione] | 4000 | – | 1400
12 | C[C@@H]1c2ccccc2CN1C(=O)CC[C@@]1(C2CC2)NC(=O)NC1=O [Example 14, (S)-5-cyclopropyl-5-(3-((R)-1-methylisoindolin-2-yl)-3-oxopropyl)imidazolidine-2,4-dione] | 1000 | – | 290
13 | O=C1NC(=O)[C@](CCC(=O)N2Cc3cccc(F)c3C2)(C2CC2)N1 [Example 16, (S)-5-cyclopropyl-5-(3-(4-fluoroisoindolin-2-yl)-3-oxopropyl)imidazolidine-2,4-dione] | 6200 | – | 1700
14 | O=C1NC(=O)[C@](CCC(=O)N2Cc3ccc(F)cc3C2)(C2CC2)N1 [Example 17, (S)-5-cyclopropyl-5-(3-(5-fluoroisoindolin-2-yl)-3-oxopropyl)imidazolidine-2,4-dione] | 370 | – | 310
15 | O=C1NC(=O)[C@](CCC(=O)N2Cc3cc(F)c(F)cc3C2)(C2CC2)N1 [Example 19, (S)-5-cyclopropyl-5-(3-(5,6-difluoroisoindolin-2-yl)-3-oxopropyl)imidazolidine-2,4-dione] | 330 | – | 260
16 | COc1cccc2c1CCN(C(=O)CC[C@@]1(C3CC3)NC(=O)NC1=O)CC2 [Example 25, (S)-5-cyclopropyl-5-(3-(6-methoxy-1,2,4,5-tetrahydro-3H-benzo[d]azepin-3-yl)-3-oxopropyl)imidazolidine-2,4-dione] | 3600 | – | 5800
17 | CC1(C)CN(C(=O)CC[C@@]2(C3CC3)NC(=O)NC2=O)CCc2ccccc21 [Example 26, (S)-5-cyclopropyl-5-(3-(1,1-dimethyl-1,2,4,5-tetrahydro-3H-benzo[d]azepin-3-yl)-3-oxopropyl)imidazolidine-2,4-dione] | 5400 | – | 3800
18 | CCC(C[C@@]1(C2CC2)NC(=O)NC1=O)C(=O)N1Cc2ccc(C(F)(F)F)cc2C1 (stereo partly drawn) [Example 31-2, (5S)-5-cyclopropyl-5-(2-(5-(trifluoromethyl)isoindoline-2-carbonyl)butyl)imidazolidine-2,4-dione] | – | 33 | –
19 | O=C1NC(=O)C(CCC(=O)N2Cc3ccc(C(F)(F)F)cc3C2)(c2nccs2)N1 (centres unmarked) [Example 43, 5-(3-oxo-3-(5-(trifluoromethyl)isoindolin-2-yl)propyl)-5-(thiazol-2-yl)imidazolidine-2,4-dione] | 250 | – | 150
20 | O=C1NC(=O)[C@](CCC(=O)N2Cc3cc(Cl)c([N+](=O)[O-])cc3C2)(C2CC2)N1 [Example 50, (S)-5-(3-(5-chloro-6-nitroisoindolin-2-yl)-3-oxopropyl)-5-cyclopropylimidazolidine-2,4-dione] | 220 | – | 120
21 | O=C1NC(=O)[C@](CCC(=O)N2Cc3cc(Cl)c(I)cc3C2)(C2CC2)N1 [Example 53, (S)-5-(3-(5-chloro-6-iodoisoindolin-2-yl)-3-oxopropyl)-5-cyclopropylimidazolidine-2,4-dione] | 170 | – | 240
22 | O=C1NC(=O)C(CCC(=O)N2Cc3ccc(C(F)(F)F)cc3C2)(c2ccccn2)N1 (centres unmarked) [Example 60, 5-(3-oxo-3-(5-(trifluoromethyl)isoindolin-2-yl)propyl)-5-(pyridin-2-yl)imidazolidine-2,4-dione] | 220 | – | 170
23 | O=C1NC(=O)[C@](CCC(=O)N2Cc3ccc(CC(F)(F)F)cc3C2)(C2CC2)N1 [Example 72, (S)-5-cyclopropyl-5-(3-oxo-3-(5-(2,2,2-trifluoroethyl)isoindolin-2-yl)propyl)imidazolidine-2,4-dione] | 130 | – | 43
24 | O=C1NC(=O)[C@](CCC(=O)N2Cc3cc(F)c(C(F)F)cc3C2)(C2CC2)N1 [Example 74, (S)-5-cyclopropyl-5-(3-(5-(difluoromethyl)-6-fluoroisoindolin-2-yl)-3-oxopropyl)imidazolidine-2,4-dione] | 100 | – | 56
25 | Cn1ccc(C2(CCC(=O)N3Cc4cc(Cl)c(C(F)(F)F)cc4C3)NC(=O)NC2=O)n1 (centres unmarked) [Example 77, 5-(3-(5-chloro-6-(trifluoromethyl)isoindolin-2-yl)-3-oxopropyl)-5-(1-methyl-1H-pyrazol-3-yl)imidazolidine-2,4-dione] | 160 | – | 400
26 | CCn1ccnc1C1(CCC(=O)N2Cc3cc(Cl)c(C(F)(F)F)cc3C2)NC(=O)NC1=O (centres unmarked) [Example 82, 5-(3-(5-chloro-6-(trifluoromethyl)isoindolin-2-yl)-3-oxopropyl)-5-(1-ethyl-1H-imidazol-2-yl)imidazolidine-2,4-dione] | 25 | – | 80
